Measurements from US5512464A, “Method of producing high fructose corn syrup from glucose using noble gases” (American Air Liquide, priority 1994, dated 1996).
Entries after “also recorded” stand apart in the source; their conditions may differ.

Legend:
α-amylase = assay: Effect of noble gases on α-amylase reaction; assay type: biochemical, Bacillus licheniformis; details: generally observed
From the text: PNPG7 is p-nitrophenyl-α-D-maltoheptaoside.
1. Reaction Principle: [drawing 3] 2.

amyloglucosidase = target: T1, amyloglucosidase (Aspergillus niger, UniProt P69328); assay: Effect of noble gases on amyloglucosidase reaction; assay type: biochemical; details: amylyoglucoside (so in the source), generally observed
T1 construct: purchased Sigma Chemical A-7420
From the text: 1. Reaction Principle: [drawing 3] 2. Solution Preparation:

glucose isomerase [1] = target: T2, glucose isomerase (Streptomyces murinus, UniProt P37031); assay: Glucose isomerase column runs under gas saturation (Example 7); assay type: biochemical; details: for reaching point of equilibrium (fructose to glucose vs glucose to fructose conversion): 100 hr run, gas saturated columns, FIG. 13; for averages of fructose to glucose and glucose to fructose conversions: averages for each gas, FIG. 15; for conversion of glucose to fructose (activity+flow rate difference): lower flow rate, under Ne, Ar and N2, FIG. 11
T2 construct: purchased Novo Sweetzyme T
Protocol: A comprehensive experiment was undertaken in order to relate the effects of noble gases upon the important process parameters of temperature, flow rate, enzyme activity and reaction equilibrium. In this experiment, four identical jacketed 1.6×35 cm (70 cc bed volume) columns containing 15 grams dry weight (40 cc bed volume) of the glucose isomerase packing used in the Vial. Runs were prepared according to the protocol outlined above. The columns and substrates were saturated with the gas of interest from a choice of argon, neon, nitrogen, krypton, xenon, helium, or a decile combination of any two or three of these.
One column was run at 0.2 ml/min at 50°, one at 0.2 ml/min at 60°, one at 0.5 ml/min at 50°, and one at 0.5 ml/min at 60°. […] During the first set of experiments, glucose feedstock (as prepared above) was used. During the second set, fructose feedstock of identical concentration was used to analyze the reverse reaction.
Data collected included flow rate, % glucose, % fructose, quantitative evaluation of fructose and glucose, dry solids, temperature, and residual gases.
Comparison of the data for each combination of experiments allows the determination of the effect of the gas, the temperature, the flow rate, the enzyme activity, and the reaction equilibrium. These are each determined independently, then the contribution of each parameter to the others can be calculated. For instance, elevating the temperature increases the flow rate, while lowering temperature and increasing the flow rate maximizes gas effects.

glucose isomerase [2] = target: T2, glucose isomerase; assay: Effect of gases on glucose isomerase reaction (vial runs, general statements); assay type: biochemical; details: for order of enhancing effect: glucose isomerase, generally observed
Protocol: Two sets of 125 ml serum vials are prepared for each studied gas, one containing the glucose substrate solution (80 ml per vial) and the other one containing Sweetzyme T (5 g dry/vial).
On day D, place the substrate vials into a shaking water bath (60° C., 140 rpm). Allow them to equilibrate in temperature. For each substrate vial, fill a 60 cc B-D syringe with the appropriate gas or gas mixture and inject it in the vial. Remove the substrate vial from the shaker bath and replace it with the corresponding enzyme vial. Allow the positive pressure in the substrate vial to fill the syringe with glucose solution up to 60 ml. Stopper syringe needle with a septum. Repeat this procedure for each vial. When all the substrate vials have been sampled, inject the content of each syringe (60 ml of gas-saturated glucose solution) into the corresponding enzyme vial. The enzyme vials are injected at 2 minute intervals. The time of the injection determine t0 for each vial.
The respective concentrations of glucose and fructose in the samples are determined by High Pressure Liquid Chromatography.

Gas solubility = assay type: physicochemical
[3] = tested on: amylase, amyloglucosidase and glucose isomerase; assay: Enzymatic reaction enhancement in the HFCS process (all three enzymes); assay type: biochemical
From the text: Generally, in accordance with the present invention, enzymatic reaction enhancements measured in terms of either rate of yield or stability parameters, and are relative to reactions conducted in air or with no added gases, or to reactions run with added nitrogen, or to a combination of the above. Depending upon the relative controls, enhancements of rate between about 0 and 20% and yield enhancements of about 0 to 5% for glucose isomerase have been obtained.

T1 sequence (P69328 25-640): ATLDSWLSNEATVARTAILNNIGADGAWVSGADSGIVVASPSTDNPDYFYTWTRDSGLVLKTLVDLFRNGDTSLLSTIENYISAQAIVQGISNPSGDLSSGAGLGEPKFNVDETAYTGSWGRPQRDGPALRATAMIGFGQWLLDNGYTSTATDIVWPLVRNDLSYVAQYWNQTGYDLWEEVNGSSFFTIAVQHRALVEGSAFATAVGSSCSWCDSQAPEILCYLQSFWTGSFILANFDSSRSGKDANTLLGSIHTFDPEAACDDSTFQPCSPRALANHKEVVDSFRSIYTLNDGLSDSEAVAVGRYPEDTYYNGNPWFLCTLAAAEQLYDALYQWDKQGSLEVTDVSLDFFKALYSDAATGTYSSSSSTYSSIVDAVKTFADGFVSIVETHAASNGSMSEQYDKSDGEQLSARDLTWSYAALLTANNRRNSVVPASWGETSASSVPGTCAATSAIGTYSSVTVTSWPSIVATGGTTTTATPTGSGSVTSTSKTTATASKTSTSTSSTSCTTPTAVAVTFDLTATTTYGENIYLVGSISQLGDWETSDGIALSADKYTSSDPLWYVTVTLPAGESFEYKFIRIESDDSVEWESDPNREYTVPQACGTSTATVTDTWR
T2 sequence (P37031 whole entry): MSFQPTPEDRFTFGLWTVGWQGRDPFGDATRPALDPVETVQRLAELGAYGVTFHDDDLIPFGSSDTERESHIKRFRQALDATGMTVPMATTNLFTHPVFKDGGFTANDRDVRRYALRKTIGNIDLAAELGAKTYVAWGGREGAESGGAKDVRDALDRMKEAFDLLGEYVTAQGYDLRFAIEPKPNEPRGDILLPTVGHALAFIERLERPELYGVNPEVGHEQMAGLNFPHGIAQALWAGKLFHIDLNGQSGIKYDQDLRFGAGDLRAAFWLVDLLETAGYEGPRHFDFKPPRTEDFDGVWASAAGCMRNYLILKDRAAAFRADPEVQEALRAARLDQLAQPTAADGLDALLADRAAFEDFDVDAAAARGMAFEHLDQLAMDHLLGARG

SMILES	order of enhancing effect (α-amylase)	order of enhancing effect (amyloglucosidase)	reaching point of equilibrium (fructose to glucose vs glucose to fructose conversion) (glucose isomerase [1])	averages of fructose to glucose and glucose to fructose conversions (glucose isomerase [1])	conversion of glucose to fructose (activity+flow rate difference) (glucose isomerase [1])	order of enhancing effect (glucose isomerase [2])	solubility (Gas solubility)	effectiveness in enhancing enzymatic activity [3]	inhibition of glucose isomerase / Sweetzyme T activity (glucose isomerase [2])
[Ar] [argon]	Xe>Ar>Ne>Kr>He	Xe>Ar>Ne>Kr>He	reach equilibrium before nitrogen saturated columns	improvement	highest conversion	Ne>Ar>Kr>Xe>He			
[Kr] [krypton]	Xe>Ar>Ne>Kr>He	Xe>Ar>Ne>Kr>He				Ne>Ar>Kr>Xe>He			
[Xe] [xenon]	Xe>Ar>Ne>Kr>He	Xe>Ar>Ne>Kr>He				Ne>Ar>Kr>Xe>He			
[He] [helium]	Xe>Ar>Ne>Kr>He	Xe>Ar>Ne>Kr>He				Ne>Ar>Kr>Xe>He	low solubility	effective	
O=O [oxygen]									greatly inhibited; also recorded: inhibitor
[Ne] [neon]	Xe>Ar>Ne>Kr>He	Xe>Ar>Ne>Kr>He	reach equilibrium before nitrogen saturated columns	improvement	significant but lesser enhancement over nitrogen	Ne>Ar>Kr>Xe>He			
